Test results published in patent US20240293397A1 (H. Lundbeck A/S, priority 2010, published 2024).
Counter-ions that a name gives are not always drawn. Like-named read-outs stand apart in the source and are kept apart here. One block for each compound: values may come before it.

Key:
[1] = Long-term effects on body weight, relapse prevention study in patients with generalised anxiety disorder; assay type: in vivo, human; details: for Δ weight / ≥7% weight gain: GAD
Text: The recruitment of patients took place over time, and since the end of the study was defined by the last patient having completed at least 24 weeks, some patients received up to 56 weeks double-blind placebo-controlled treatment.
(§1) The tables below show the mean difference in weight relative to the start of the open label period and to the time of randomisation and the fraction of patients experiencing equal to or more than […] during the study, i.e. potentially clinically significant increase.

[2] = Long-term effects on body weight, relapse prevention study in patients with major depressive disorder; assay type: in vivo, human; details: for Δ weight / ≥7% weight gain: MDD
Text: The recruitment of patients took place over time, and since the end of the study was defined by the last patient having completed the 24 weeks study, some patients received up to 64 weeks double-blind placebo-controlled treatment. This study is also reported in poster NR4-14 presented at the 164th Annual Meeting of the American Psychiatric Association, May 14-18 2011, Honolulu, Hawaii, USA.
as §1

[3] = long-term (up to two years) relapse prevention study; cited from earlier work
[4] = OCD patients; end of 2.5 years study; cited from earlier work
[5] = Properties of polymorphic forms and salts (stability, solubility, hygroscopicity); assay type: physicochemical
Protocol: The polymorphic forms have different properties.
When a compound is administered as an oral drop formulation, a few drops of a concentrated, liquid formulation of said drug is measured out and added to a glass of water, juice or the like that the patient drinks. As an example, the antidepressant cipramil is provided as an oral drop formulation at 40 mg/ml.

[6] = long-term study (26-32 weeks); cited from earlier work
5-HT transporter = 5-HT transporter (Homo sapiens, UniProt P31645); details: in vitro; cited from earlier work
5-HT7 receptor = 5-HT7 receptor (Homo sapiens, UniProt P34969); details: in vitro; cited from earlier work
5-HT1B receptor = 5-HT1B receptor (Homo sapiens, UniProt P28222); details: in vitro; cited from earlier work
[7] = six weeks, cited from earlier work
[8] = system: neurotransmitters serotonin, noradrenalin, dopamine, acetylcholine and histamine; details: in vivo nonclinical; cited from earlier work
5-HT3 receptor = target: T1, 5-HT3 receptor (Homo sapiens, UniProt P46098); details: in vitro; cited from earlier work
T1 sequence (P46098 24-478): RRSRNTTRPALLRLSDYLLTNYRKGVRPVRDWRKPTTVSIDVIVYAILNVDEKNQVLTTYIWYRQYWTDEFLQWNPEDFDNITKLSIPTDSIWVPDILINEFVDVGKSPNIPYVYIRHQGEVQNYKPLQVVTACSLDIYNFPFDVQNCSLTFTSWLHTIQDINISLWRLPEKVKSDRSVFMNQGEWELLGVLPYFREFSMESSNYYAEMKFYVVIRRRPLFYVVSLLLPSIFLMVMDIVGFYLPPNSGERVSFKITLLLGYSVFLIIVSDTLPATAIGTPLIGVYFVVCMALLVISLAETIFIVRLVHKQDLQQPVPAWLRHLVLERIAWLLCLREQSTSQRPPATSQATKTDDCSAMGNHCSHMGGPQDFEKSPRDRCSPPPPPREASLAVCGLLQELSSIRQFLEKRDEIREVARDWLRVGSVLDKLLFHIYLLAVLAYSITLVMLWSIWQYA

[9] = 566 patients, eight weeks; cited from earlier work
[10] = six week study; cited from earlier work
[11] = 324 patients, eight weeks; cited from earlier work
[12] = week 20, relative to start of open label period (t = 0), 227 patients
[13] = week 32, relative to start of open label period (t = 0), 220 patients
[14] = week 32, relative to time of randomisation (t = 20 weeks), 221 patients
[15] = week 44, relative to start of open label period (t = 0), 179 patients
[16] = week 44, relative to time of randomisation (t = 20 weeks), 180 patients
[17] = week 56, relative to start of open label period (t = 0), 84 patients
[18] = week 56, relative to time of randomisation (t = 20 weeks), 84 patients
[19] = week 68, relative to start of open label period (t = 0), 28 patients
[20] = week 68, relative to time of randomisation (t = 20 weeks), 28 patients
[21] = week 76, relative to start of open label period (t = 0), 4 patients
[22] = week 76, relative to time of randomisation (t = 20 weeks), 4 patients
[23] = week 12, relative to start of open label period (t = 0), 204 patients
[24] = week 24, relative to start of open label period (t = 0), 199 patients
[25] = week 24, relative to time of randomisation (t = 12 weeks), 199 patients
[26] = week 36, relative to start of open label period (t = 0), 157 patients
[27] = week 36, relative to time of randomisation (t = 12 weeks), 157 patients
[28] = week 48, relative to start of open label period (t = 0), 90 patients
[29] = week 48, relative to time of randomisation (t = 12 weeks), 90 patients
[30] = week 60, relative to start of open label period (t = 0), 52 patients
[31] = week 60, relative to time of randomisation (t = 12 weeks), 52 patients
[32] = week 72, relative to start of open label period (t = 0), 19 patients
[33] = week 72, relative to time of randomisation (t = 12 weeks), 19 patients
[34] = week 76, relative to start of open label period (t = 0), 3 patients
[35] = week 76, relative to time of randomisation (t = 12 weeks), 3 patients

Sequence of 5-HT transporter (P31645 whole entry, species assumed): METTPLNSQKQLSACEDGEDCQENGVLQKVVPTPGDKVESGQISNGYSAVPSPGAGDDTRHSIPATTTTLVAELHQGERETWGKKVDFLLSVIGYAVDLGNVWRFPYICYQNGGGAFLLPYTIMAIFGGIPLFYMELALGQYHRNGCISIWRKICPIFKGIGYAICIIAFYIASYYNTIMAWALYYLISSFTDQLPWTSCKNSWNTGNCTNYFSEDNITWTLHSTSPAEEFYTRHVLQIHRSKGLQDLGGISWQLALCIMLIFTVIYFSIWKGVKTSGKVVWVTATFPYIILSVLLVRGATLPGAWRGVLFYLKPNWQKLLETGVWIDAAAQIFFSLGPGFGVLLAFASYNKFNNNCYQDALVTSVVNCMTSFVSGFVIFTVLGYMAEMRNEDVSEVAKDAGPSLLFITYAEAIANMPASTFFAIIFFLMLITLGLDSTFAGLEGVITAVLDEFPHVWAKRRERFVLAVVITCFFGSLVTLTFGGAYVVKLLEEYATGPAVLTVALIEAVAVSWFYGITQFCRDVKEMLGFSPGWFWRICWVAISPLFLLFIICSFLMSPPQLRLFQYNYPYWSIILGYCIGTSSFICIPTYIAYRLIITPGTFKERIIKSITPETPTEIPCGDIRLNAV
Sequence of 5-HT7 receptor (P34969 whole entry): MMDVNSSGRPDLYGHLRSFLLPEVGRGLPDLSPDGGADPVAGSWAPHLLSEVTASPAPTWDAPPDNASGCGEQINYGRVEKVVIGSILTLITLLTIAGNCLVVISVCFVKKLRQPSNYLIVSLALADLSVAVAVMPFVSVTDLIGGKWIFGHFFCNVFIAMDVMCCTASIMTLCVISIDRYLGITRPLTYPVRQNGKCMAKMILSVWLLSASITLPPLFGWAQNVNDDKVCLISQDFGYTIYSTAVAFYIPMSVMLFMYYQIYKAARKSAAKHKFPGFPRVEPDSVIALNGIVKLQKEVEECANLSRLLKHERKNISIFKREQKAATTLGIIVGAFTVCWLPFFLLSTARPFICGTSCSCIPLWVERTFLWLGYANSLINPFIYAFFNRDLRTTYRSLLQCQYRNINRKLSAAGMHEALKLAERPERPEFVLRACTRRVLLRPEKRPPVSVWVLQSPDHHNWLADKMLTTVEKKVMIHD
Sequence of 5-HT1B receptor (P28222 whole entry): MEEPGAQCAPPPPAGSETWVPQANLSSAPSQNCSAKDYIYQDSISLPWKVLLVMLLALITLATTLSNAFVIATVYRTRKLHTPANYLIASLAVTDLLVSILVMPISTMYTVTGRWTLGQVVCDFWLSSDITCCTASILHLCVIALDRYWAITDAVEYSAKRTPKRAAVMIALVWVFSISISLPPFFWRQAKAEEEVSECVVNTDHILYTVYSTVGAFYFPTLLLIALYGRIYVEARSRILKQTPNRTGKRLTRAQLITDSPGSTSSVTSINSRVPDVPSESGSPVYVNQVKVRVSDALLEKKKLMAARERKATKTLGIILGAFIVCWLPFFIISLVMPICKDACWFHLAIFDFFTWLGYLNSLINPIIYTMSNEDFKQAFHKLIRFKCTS

Compound: Cc1ccc(Sc2ccccc2N2CCNCC2)c(C)c1 [Compound I HBr, 1-[2-(2,4-dimethyl-phenylsulfanyl)phenyl]piperazine HBr]
weight gain versus placebo after long-term treatment ([1]; combined data of tables 1-4 (MDD and GAD patients)): no meaningful difference
Δ weight [1, 12]: 0.3 kg
≥7% weight gain [1, 12]: 2.6%
Δ weight [1, 13]: 0.5 kg
≥7% weight gain [1, 13]: 3.6%
Δ weight [1, 14]: 0.3 kg
≥7% weight gain [1, 14]: 0.9%
Δ weight [1, 15]: 0.8 kg
≥7% weight gain [1, 15]: 8.4%
Δ weight [1, 16]: 0.5 kg
≥7% weight gain [1, 16]: 4.4%
Δ weight [1, 17]: 1.5 kg
≥7% weight gain [1, 17]: 17.9%
Δ weight [1, 18]: 1.1 kg
≥7% weight gain [1, 18]: 10.7%
Δ weight [1, 19]: 1.5 kg
≥7% weight gain [1, 19]: 10.7%
Δ weight [1, 20]: 1.7 kg
≥7% weight gain [1, 20]: 10.7%
Δ weight [1, 21]: 0.9 kg
≥7% weight gain [1, 21]: 0.0%
Δ weight [1, 22]: 1.6 kg
≥7% weight gain [1, 22]: 0.0%
weight gain versus placebo after long-term treatment ([2]; MDD patients, data of tables 1 and 2): no meaningful difference
Δ weight [2, 23]: 0.0 kg
≥7% weight gain [2, 23]: 2.0%
Δ weight [2, 24]: 0.3 kg
≥7% weight gain [2, 24]: 6.5%
Δ weight [2, 25]: 0.4 kg
≥7% weight gain [2, 25]: 2.0%
Δ weight [2, 26]: 0.6 kg
≥7% weight gain [2, 26]: 8.9%
Δ weight [2, 27]: 0.6 kg
≥7% weight gain [2, 27]: 6.4%
Δ weight [2, 28]: 0.7 kg
≥7% weight gain [2, 28]: 8.9%
Δ weight [2, 29]: 0.9 kg
≥7% weight gain [2, 29]: 8.9%
Δ weight [2, 30]: 0.4 kg
≥7% weight gain [2, 30]: 9.6%
Δ weight [2, 31]: 0.8 kg
≥7% weight gain [2, 31]: 13.5%
Δ weight [2, 32]: -0.2 kg
≥7% weight gain [2, 32]: 10.5%
Δ weight [2, 33]: 0.3 kg
≥7% weight gain [2, 33]: 10.5%
Δ weight [2, 34]: -2.3 kg
≥7% weight gain [2, 34]: 0.0%
Δ weight [2, 35]: -0.8 kg
≥7% weight gain [2, 35]: 0.0%

Compound: CN(C)CCC=C1c2ccccc2CCc2ccccc21 [amitriptyline]
proportion of patients showing a PCS increase in body weight [3]: 22%

Compound: CN(C)CCCN1c2ccccc2CCc2ccc(Cl)cc21 [clomiptramine]
percentage of patients with PCS weight increase (7% or above compared to baseline) [4]: 34.8%

solubility [5]: high solubility
Compound: Cc1ccc(Sc2ccccc2N2CCNCC2)c(C)c1 (racemic) [DL lactate salt of Compound I, DL-lactate salt of 1-[2-(2,4-dimethylphenylsulphanyl)-phenyl]piperazine]

Compound: CN[C@H]1CC[C@@H](c2ccc(Cl)c(Cl)c2)c2ccccc21 [sertraline]
percentage of patients with PCS weight increase (7% or above compared to baseline) [4]: 4.5%
proportion of patients showing a PCS increase in body weight [6]: 4.2%

Compound: CNCCC(Oc1ccc(C(F)(F)F)cc1)c1ccccc1 (stereo not shown) [fluoxetine]
percentage of patients with PCS weight increase (7% or above compared to baseline) [4]: 8.7%
proportion of patients showing a PCS increase in body weight [6]: 6.6%

Compound: Cc1ccc(Sc2ccccc2N2CCNCC2)c(C)c1 [Compound I, 1-[2-(2,4-dimethyl-phenylsulfanyl)phenyl]piperazine]
activity at 5-HT transporter (5-HT transporter): inhibitor
activity at 5-HT7 receptor (5-HT7 receptor): antagonist
activity at 5-HT1B receptor (5-HT1B receptor): partial agonist
changes in clinical laboratory results, vital signs, weight, or ECG parameters ([7]; MDD patients): no clinically relevant changes
treatment of depressive and anxious symptoms versus placebo ([7]; approximately 100 patients in each arm, MDD): separates significantly from placebo
levels of serotonin, noradrenalin, dopamine, acetylcholine and histamine in specific areas of the brain [8]: enhances levels
activity at 5-HT3 receptor (5-HT3 receptor): antagonist

Compound: CN(C)CCCC1(c2ccc(F)cc2)OCc2cc(C#N)ccc21 (stereo not shown) [citalopram]
percentage of patients with PCS weight increase (7% or above compared to baseline) [4]: 14.3%

Compound: Fc1ccc([C@@H]2CCNC[C@H]2COc2ccc3c(c2)OCO3)cc1 [paroxetine]
weight change [9]: small weight loss
weight gain [10]: no weight gain was noted
percentage of patients with PCS weight increase (7% or above compared to baseline) [4]: 14.3%
effects on weight [11]: no substantial effects on weight
proportion of patients showing a PCS increase in body weight [6]: 25.5%
